Assay results as given in patent publication US20250177376A1, “ALPHA 2 ADRENERGIC RECEPTOR BLOCKADE FOR THE TREATMENT OF C. DIFFICILE COLITIS” (University of Virginia Patent Foundation, priority 2022, published 2025).
“And” between values parts separate entries of the source, which are not always exact repeats. Equal values may be shown once. “Also recorded” adds a separate entry of the source. Where a name gives a salt, the structure may show the parent alone.

Assays:
[1] = tested on: C. difficile infection (CDI); assay: Mouse CDI model: survival, weight loss, clinical score; type: in vivo, mice; conditions: for clinical score versus ORA-PLUS vehicle: oral gavage days -1, 0, 1, scores at days 2-8
[2] = tested on: eosinophils, neutrophils, monocytes; assay: Infiltrating colonic immune cells in CDI mice by flow cytometry; conditions: for monocyte levels / neutrophil levels: 6-OHDA vs PBS/saline, desipramine vs 6-OHDA alone
Method: To determine whether the sympathetic nervous system was necessary for a mounting of the inflammatory response, the infiltrating immune cell response in 6-OHDA-treated mice was measured by flow cytometry.

cytokines = assay: Luminex 32-plex cytokine levels in cecal tissue of CDI mice; conditions: IL-2, IL-4, IL-10, IL-12 (p40, p70), IL-15, MIP-1a, MIP-1b, LIX, VEGF, IL-5, GM-CSF, M-CSF, G-CSF, Eotaxin, IL-1b, IL-6, LIF, IP-10, KC, MCP-1, MIP2, MIG, IFNγ, IL-1a, IL-9, TNFa
Method: The levels of numerous cytokines were tested in PBS-treated mice and mice administered 6-OHDA.

C. difficile [3] = assay: C. difficile colonization in cecal contents by GDH ELISA; type: in vivo; conditions: cecal contents 2 days post-infection
Method: CDI colonization levels were also determined in PBS-treated mice (negative control) and mice treated with RX 821002. Briefly, C. difficile colonization in cecal contents of mice sacrificed 2 days post-infection was determined by a GDH ELISA from […], Inc. (Blacksburg, Virginia, United States of America; Catalog No. TL5025). Prior to the ELISA, cecal contents were resuspended in PBS by mass. The GDH ELISA was performed according to the manufacturer's instructions.

C. difficile [4] = assay: C. difficile counts (CFU) from cecal contents; type: in vivo; conditions: cecal contents at 18 hours post-infection
Method: C. difficile counts were quantified from cecal contents at 18 hours post-infection. Cecal contents were resuspended by mass in anaerobic PBS. […] Colony counts were made manually.

toxin A/B = assay: Toxin A/B ELISA of cecal contents; type: in vivo, C. difficile; conditions: cecal contents 2 days post-infection
Method: ADRA2A inhibition with RX 821002 was also tested for any affects on toxin A/B levels in mice. Briefly, […] in cecal contents of mice sacrificed 2 days post-infection was determined by a Toxin A/B ELISA from TECHLAB, Inc. (Catalog No. TL5025). Prior to the ELISA, cecal contents were resuspended in PBS by mass. The Toxin A/B ELISA was performed according to the manufacturer's instructions. Mice were treated with RX 821002 and toxin A/B levels in CDI cecal content were determined.

[5] = CDI mouse model, 6-OHDA 80 mg/kg i.p., propranolol, SR 59230A, RX 821002 10 mg/kg i.p., nepicastat oral gavage

NCCc1cc(O)c(O)cc1O [6-OHDA, 6-hydroxydopamine]
effect on survival / CDI-induced mortality versus negative control ([1]; mouse, in vivo): strikingly ameliorated the incidence of mortality; also recorded: complete protection from death
mice still alive through day 5 post-infection ([1]; mouse, in vivo): 100%
weight loss versus control ([1]; mouse, in vivo): significantly (p<0.001) reduced; also recorded: strikingly ameliorated
mice still alive at day 7 post-infection ([1]; mouse, in vivo, ip, 80 mg/kg): 90% and 80%
monocyte levels [2]: not significantly reduced
neutrophil levels [2]: significantly reduced; also recorded: less representative of the colonic immune cells
eosinophil levels ([2]; vs PBS/Saline): did not reach statistical significance
cytokine levels versus PBS-treated mice (cytokines): statistically significantly reduced; also recorded: lower amounts of cytokines
cytokine levels versus PBS-treated mice (cytokines; listed as 6-hydroxydopamine): block in pro-inflammatory cytokine response

COC1(C2=NCCN2)COc2ccccc2O1 (centres unmarked) [RX 821002, 2-(3-methoxy-2H-1,4-benzodioxin-3-yl)-4,5-dihydro-1H-imidazole]
effect on survival / CDI-induced mortality versus negative control [1, 5]: statistically significant difference in percent survival; also recorded: drastically reduced; also recorded: ameliorated CDI induced mortality; also recorded: protection
CDI colonization (GDH ELISA) versus PBS (C. difficile [3]): no effect
C. difficile burden, colony-forming units (CFU)/mg/ml, versus PBS (C. difficile [4]): no difference
toxin A/B levels in CDI cecal content (toxin A/B): reduced

CCc1ccccc1OC[C@@H](O)CN[C@H]1CCCc2ccccc21 [SR 59230A, (2S)-1-(2-ethylphenoxy)-3-[[(1S)-1,2,3,4-tetrahydronaphthalen-1-yl]amino]propan-2-ol]
effect on survival / CDI-induced mortality versus negative control [1, 5]: increased the incidence of mortality; also recorded: exacerbated CDI disease progression
mice dead prior to day 3 post-infection ([1]; CDI mouse model, SR 59230A 10 mg/kg i.p.): 100%

CNCCCN1c2ccccc2CCc2ccccc21 [desipramine, 3-(10,11-dihydro-5H-dibenzo[b,f]azepin-5-yl)-N-methylpropan-1-amine]
effect on survival / CDI-induced mortality versus negative control ([1]; mouse, in vivo): prevented the protective effect of 6-OHDA on the incidence of mortality
monocyte levels [2]: statistically significant elevation
neutrophil levels [2]: negated this reduction

NCc1c[nH]c(=S)n1[C@H]1CCc2c(F)cc(F)cc2C1 [nepicastat hydrochloride, 5-(Aminomethyl)-1-[(2S)-5,7-difluoro-1,2,3,4-tetrahydro-2-naphthalenyl]-1,3-dihydro-2H-imidazole-2-thione]
effect on survival / CDI-induced mortality versus negative control [1, 5]: protected against CDI-induced mortality; also recorded: significantly improved survival
effect on survival / CDI-induced mortality versus negative control ([1]; CDI mouse model, 6-OHDA 80 mg/kg i.p., propranolol, SR 59230A, RX 821002 10 mg/kg i.p., nepicastat oral gavage, listed as nepicastat): greatly reduced the incidence of mortality
clinical score versus ORA-PLUS vehicle ([1]; CDI mouse model): statistically significantly lower
clinical score versus ORA-PLUS vehicle ([1]; CDI mouse model, listed as Nepicastat): significantly better clinical scores

COC(=O)[C@@H]1[C@H]2C[C@H]3c4[nH]c5ccccc5c4CCN3C[C@@H]2CC[C@@H]1O [yohimbine, methyl(1S,15R,18S,19R,20S)-18-hydroxy-1,3,11,12,14,15,16,17,18,19,20,21-dodecahydroyohimban-19-carboxylate]
effect on survival / CDI-induced mortality versus negative control [1, 5]: statistically significant amelioration of CDI induced mortality
